Test results from ChEMBL document CHEMBL1201862, “PubChem BioAssay data set” (2004).
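Protocol summary: plate cells (96-well), add compound at 5 concentrations, incubate 48 h, interpolate endpoints linearly. GI50 is the concentration that inhibits growth by half.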 Activity calls are given as the source filed them. Cut-off read from the data, not from the text of the source: active = GI50 up to about 1.1 µM and inactive = higher.

Tests used:
Assay in all cases: NCI anticancer screen, dose series, 48 h
MDA-MB-435 = system: MDA-MB-435
Malme-3M = system: Malme-3M
SK-MEL-5 = system: SK-MEL-5
HCT-116 = system: HCT-116
SF-295 = system: SF-295
TK-10 = system: TK-10
A549 = system: A549
SNB-75 = system: SNB-75
SK-OV-3 = system: SK-OV-3
HCC 2998 = system: HCC 2998
OVCAR-3 = system: OVCAR-3
NCI-H226 = system: NCI-H226
786-0 = system: 786-0
DU-145 = system: DU-145
SN12C = system: SN12C
COLO 205 = system: COLO 205
SK-MEL-2 = system: SK-MEL-2
MOLT-4 = system: MOLT-4
MCF7 = system: MCF7

Structure (SMILES)	GI50 (MDA-MB-435)	GI50 (Malme-3M)	GI50 (SK-MEL-5)	GI50 (HCT-116)	GI50 (SF-295)	GI50 (TK-10)	GI50 (A549)	GI50 (SNB-75)	GI50 (SK-OV-3)	GI50 (HCC 2998)	GI50 (OVCAR-3)	GI50 (NCI-H226)	GI50 (786-0)	GI50 (DU-145)	GI50 (SN12C)	GI50 (COLO 205)	GI50 (SK-MEL-2)	GI50 (MOLT-4)	GI50 (MCF7)
COc1cc2c(cc1OC)-c1c(oc3cc(OC4OC(CO)C(O)C(O)C4O)c(OC)cc3c1=O)C(O)O2 (stereo not given)	> 100 µM (inactive)	> 100 µM (inactive)	> 100 µM (inactive)	> 100 µM (inactive)	> 100 µM (inactive)	> 100 µM (inactive)	> 100 µM (inactive)	> 100 µM (inactive)	> 100 µM (inactive)	> 100 µM (inactive)	> 100 µM (inactive)	> 100 µM (inactive)	> 100 µM (inactive)	> 100 µM (inactive)	> 100 µM (inactive)	> 100 µM (inactive)	> 100 µM (inactive)	–	–
O=C(c1ccc(/N=C/c2ccccc2O)cc1)c1ccc(/N=C/c2ccccc2O)cc1	> 100 µM (inactive)	> 100 µM (inactive)	6.11 µM (inactive)	> 100 µM (inactive)	> 100 µM (inactive)	> 100 µM (inactive)	> 100 µM (inactive)	> 100 µM (inactive)	> 100 µM (inactive)	> 100 µM (inactive)	> 100 µM (inactive)	> 100 µM (inactive)	> 100 µM (inactive)	> 100 µM (inactive)	–	30.1 µM (inactive)	> 100 µM (inactive)	> 100 µM (inactive)	> 100 µM (inactive)
c1ccc(Cc2cc(-c3ccccc3)[nH]n2)cc1	10.3 µM (inactive)	–	–	25.9 µM (inactive)	0.568 µM (active)	17.4 µM (inactive)	11.1 µM (inactive)	< 0.01 µM (active)	32.4 µM (inactive)	–	0.0465 µM (active)	12.5 µM (inactive)	17 µM (inactive)	11.5 µM (inactive)	13.5 µM (inactive)	17.4 µM (inactive)	16.5 µM (inactive)	10.4 µM (inactive)	19.8 µM (inactive)
COC(=O)[C@H](C)NC(=O)[C@H](NS(=O)(=O)c1nc2ccccc2s1)c1ccccc1	41 µM (inactive)	–	15.8 µM (inactive)	44.3 µM (inactive)	39.1 µM (inactive)	58.1 µM (inactive)	–	18.6 µM (inactive)	33.2 µM (inactive)	20.1 µM (inactive)	–	14.5 µM (inactive)	29.2 µM (inactive)	15.2 µM (inactive)	–	13.1 µM (inactive)	11.3 µM (inactive)	29 µM (inactive)	34 µM (inactive)
O=C(CCc1nnc2s/c(=C\c3ccccc3[N+](=O)[O-])c(=O)n12)Nc1cc(Cl)c(Cl)cc1Cl	–	48.2 µM (inactive)	34.1 µM (inactive)	17.5 µM (inactive)	18.7 µM (inactive)	37.1 µM (inactive)	30.5 µM (inactive)	20.5 µM (inactive)	56.6 µM (inactive)	38.5 µM (inactive)	18.2 µM (inactive)	16.4 µM (inactive)	17.1 µM (inactive)	–	24.6 µM (inactive)	83.4 µM (inactive)	92.7 µM (inactive)	21 µM (inactive)	–
Cc1cccc2c1C/C(=C\c1cccc(C)c1C(=O)O)C2=O	> 100 µM (inactive)	> 100 µM (inactive)	71.6 µM (inactive)	> 100 µM (inactive)	> 100 µM (inactive)	> 100 µM (inactive)	> 100 µM (inactive)	> 100 µM (inactive)	–	> 100 µM (inactive)	> 100 µM (inactive)	> 100 µM (inactive)	> 100 µM (inactive)	> 100 µM (inactive)	> 100 µM (inactive)	82.6 µM (inactive)	> 100 µM (inactive)	61.1 µM (inactive)	> 100 µM (inactive)
